Laboratory results: patent publication US8283373B2, “Inhibitors of cytosolic phospholipase A2” (Pfizer Inc., priority 2005, dated 2012)
“Also recorded” adds a separate entry of the source.

Key:
carrageenan paw edema = test: Carrageenan paw edema assay; assay type: in vivo; details: oral
Protocol: The carrageenan paw edema assay is an acute model of inflammation that is particularly useful for in vivo assessment of compounds that effect the production of prostaglandins. In particular, NSAIDs inhibit edema in a characteristic dose response fashion in this model, and the activity of NSAIDs in this model correlates well with the activity observed in man (See Mukherjee A, et al., Inflamm Res. 1996; 45:531-540). Therefore, the compound of Example 10 was tested in the carrageenan paw edema model.

CFA-induced hyperalgesia = CFA-induced hyperalgesia model; assay type: in vivo, rat; details: 6 hours after CFA
Text: The sensitivity of peripheral sensory neurons can be enhanced such that they respond to both noxious and non-noxious stimuli resulting in chronic pain (See Julius, D. et al., Nature. 2001; 413:203; Woolf, C. J., et al., Science. […]; 288:1765). Prostaglandins and leukotrienes at the site of inflammation and tissue damage are partially responsible for this potentiation of the pain response. Prostaglandins promote the phosphorylation of ion channels, increasing the excitability and lowering the pain threshold of sensory neurons. Analogously, leukotriene B4 and related arachidonate metabolites of 12-LO bind to and activate the capsaicin receptor (or VR1) ion channel on neurons that respond to heat and low pH (See Piomelli D., TRENDS in Pharmacological Sciences, January 2001; 22(1):17-29). The effect of the compound of Example 10 was measured in the CFA-induced hyperalgesia model, and lipid mediator production was measured at peripheral and central sites.
The animals were dosed with vehicle, the compound of Example 10, naproxen or celecoxib, and then CFA was immediately injected into the hind footpad. To assess hyperalgesia, pressure was applied to the left hind paw at a slow and constant rate using a digital force gauge. Measurements were taken at 0 and 6 hours. The application of the force was stopped when the animal vocalized, or struggled. Readings were taken prior to dosing and CFA injection, and repeated six hours after the CFA injection. Two independent experiments were run and the data were analyzed separately.
The paws were collected at the end of each experiment (6 hours) and the levels of PGE2, LTB4 and TXB2 were measured in the exudates.

[1] = test system: Ascaris suum antigen-induced bronchoconstriction and AHR; test: Sheep model of antigen-induced early and late-phase bronchoconstriction and AHR; assay type: in vivo
Protocol: In addition to the allergen induced pulmonary inflammation models in rodents, allergen induced changes in lung function are often evaluated in allergic sheep. […] Studies performed in this animal model present strong evidence that the release of arachidonic acid metabolites plays an important role in the development of late bronchial responses to antigen challenge (See Abraham, W. M., et al, Respiration. 1989; 56:48-56). Thus, the compound of Example 10 was evaluated for effects on allergen induced changes in lung function In a sheep model of asthma.
Allergen-induced reversible airway narrowing and AHR are two hallmark features of allergic asthma that can be examined in vivo in a sheep model of asthma. Studies performed in this animal model present strong evidence that the release of arachidonic acid metabolites plays an important role in the development of late bronchial responses to antigen challenge (See Abraham, W. M., et al., Respiration. 1989; 56:48-56). The release of leukotrienes through the LO pathway during the acute bronchial constriction after inhalation of Ascaris suum antigen represents the key factor for the initiation of the subsequent events, namely the late-phase response and the bronchial hyperreactivity. […] In addition, oral administration of a dual LTD4/TXB2 inhibitor can inhibit both the early and late-phase response, as well as AHR to carbachol and histamine (See Abraham, W. M., et al., J Pharmacol Exp Ther. 1988; 247:1004-1011).
The compound of Example 10 was administered at 3 mg/kg BID (PO) 24 h prior to challenge, 2 h prior to challenge and 8 hr post challenge. The mean % increase in airway resistance for 3 individual sheep over the ensuing 8 h period was determined.
The following day, airway hyperresponsiveness (AHR) was assessed in these same treated sheep by determining the cumulative carbachol concentration that increased specific lung resistance by 400%. […] In an extended dosing regimen, compound of Example 10 was administered at 3 mg/kg PO BID for 4 days before challenge, 2 hours before challenge on the fifth day and 8 hr post challenge.

[2] = 3 mg/kg BID PO 24 h and 2 h prior to and 8 hr post challenge
[3] = extended regimen: 3 mg/kg PO BID 4 days before challenge, 2 hours before and 8 hr post

## O=C(O)c1ccc(CCCc2c(CCNS(=O)(=O)Cc3ccccc3C(F)(F)F)n(C(c3ccccc3)c3ccccc3)c3ccc(Cl)cc23)cc1 [Example 10, 4-(3-{5-chloro-1-(diphenylmethyl)-2-[2-({[2-(trifluoromethyl)benzyl]sulfonyl}amino)ethyl]-1H-indol-3-yl}propyl)benzoic acid]
Carrageenan paw edema; 2 hours before carrageenan, doses as low as 3 mg/kg
  Paw edema: statistically significantly decreased; also recorded: significantly inhibited edema
Carrageenan paw edema; based on a maximal inhibition of 50%, read-out: approximate ED50 of paw edema inhibition
  ED50: ~7.5 mg/kg
CFA-induced hyperalgesia; 25 mg/kg
  pain (paw pressure) compared to vehicle control: statistically significant decrease; also recorded: effective
CFA-induced hyperalgesia
  LTB4 levels in paw exudates: significantly inhibited
  TXB2 levels in paw exudates: greater than the inhibition with celecoxib
CFA-induced hyperalgesia; Example 10 at 25 mg/kg
  PGE2 levels in paw exudates: significantly inhibited
[1]; [2]
  airway hyperresponsiveness (AHR) to carbachol: complete blockade
  late asthmatic response (airway resistance): Complete blockade
[1]; [3]
  AHR to aerosolized carbachol: complete blockade
  early asthmatic response: modest but statistically significant inhibition
  late-phase response: complete blockade
